Molecules are shown by their SMILES. pEC50, pIC50: −log10 of the molar value. Values after ≈ are worked out from the molar mass of the structure shown. Where only a bound is given, the exact number is not on record here.

What is called bioavailability is dose-corrected exposure relative to a reference, in per cent. High values mean good availability, low ones poor availability. Usually half-life stands for the time in which the quantity being followed falls by half. In general, MIC90 refers to an inhibitory concentration at the 90% level, which refers to growth in some studies and to a panel of isolates in others. As usually defined, the CC50 is the concentration that lowers cell viability or growth by half. By solubility is commonly meant how much of the substance goes into solution per volume. High values mean much dissolved substance, low ones little dissolved substance. The pEC50 is the EC50 on a negative log10 scale, so that one unit is a factor of ten. Usually pIC50 stands for the negative decadic logarithm of the IC50, by convention in mol/L.

The test system of series [1] is Mycobacterium tuberculosis. The series can be described thus: Antibacterial activity against Mycobacterium tuberculosis Erdman (TMCC 107) in chronic Mtb infection BALB/c mouse model assessed as reduction in log10 CFU in lungs at 100 mg/kg, po via gavage upto 8 weeks. The series is classed as functional.
Series [2] in a line: Oral bioavailability in CD-1 mouse at 10 mg/kg measured for 24 hrs. The series is classed as ADME, organism-based. The following applies: in vivo.
The test system of series [3] is Mycobacterium tuberculosis. The series can be described thus: Antibacterial activity against Mycobacterium tuberculosis Erdman (TMCC 107) in Mtb infection C3HeB/FeJ mouse model assessed as reduction in log10 CFU in lungs at 100 mg/kg, po via gavage upto 4 weeks. The series is classed as functional.
The nature of series [4]: Half life in CD-1 mouse at 5 mg/kg, iv measured for 24 hrs. The series is classed as ADME, organism-based. The following applies: in vivo.
Series [5] deals with Mycobacterium tuberculosis. The series can be described thus: Antibacterial activity against Mycobacterium tuberculosis Erdman in acute Mtb infection C57BL/6-IFN-gamma-tm1Ts KO mouse model assessed as reduction in log10 CFU in lungs at 50 mg/kg, po qd for 9 consecutive days. The series is classed as functional.
The subject of series [6] is Mycobacterium tuberculosis. The series is classed as functional. The following applies: H37Rv, 120 h, time 5 day.
For series [7], the system named is HepG2. As to the kind of experiment: Cytotoxicity against human HepG2 cells assessed as reduction in cell viability treated for 72 hrs by Cell Titer Glo assay. The series is classed as functional.
Series [8] in a line: Metabolic stability in CD-1 mouse liver microsomes assessed as half life measured for 5 to 40 mins by LC-MS/MS analysis. The series is classed as ADME, Microsome. The following applies: time 5-40 min. Background: Liver microsomes are a subcellular fraction often used to study metabolism.
Series [9] can be described thus: Solubility of the compound in PBS at pH 7.4 incubated for 24 hrs by LC-MS analysis. The series is classed as physicochemical.
Series [10] relates to Mycobacterium tuberculosis. The series can be described thus: Antibacterial activity against Mycobacterium tuberculosis infected in macrophage assessed as inhibition of bacterial growth. The series is classed as functional, organism-based.
For series [11], the system named is Mycobacterium tuberculosis. The series is classed as functional, H37Rv. The note with it: dose 10 mg/kg; route po; time 2 weeks.
Series [12] has as its system Mycobacterium tuberculosis. The series is classed as functional. The note with it: H37Rv, 336 h, time 14 day.
The subject of series [13] is Mycobacterium tuberculosis. The series is classed as functional, H37Rv. The following applies: dose 400 mg/kg; route sc; time 3 weeks.
Series [14] has as its system Mycobacterium tuberculosis. The series is classed as functional. The note with it: H37Rv, time 6 day.
Series [15] deals with Mycobacterium tuberculosis. The series is classed as functional, H37Rv. The following applies: dose 18 mg/kg; time 8 day.
A short description of series [16]: Half life in mouse. The series is classed as ADME, organism-based. The following applies: in vivo.
In series [17] the test system is Mycobacterium tuberculosis. As to the kind of experiment: Antibacterial activity against Mycobacterium tuberculosis Beijing strain in acute Mtb infection BALB/c mouse model assessed as reduction in log10 CFU in lungs at 50 mg/kg, po for 3 weeks. The series is classed as functional.
Series [18] deals with Mycobacterium tuberculosis. The series can be described thus: Antibacterial activity against Mycobacterium tuberculosis infected in macrophage assessed as inhibition of bacterial growth in presence of Ethionamide. The series is classed as functional, organism-based.
The subject of series [19] is Mycobacterium tuberculosis. The series is classed as functional. The following applies: H37Rv.
Series [20] relates to Mycobacterium tuberculosis. The series can be described thus: Antibacterial activity against Mycobacterium tuberculosis in acute Mtb infection mouse model assessed as reduction in log10 CFU at 25 mg/kg treated for 3 weeks. The series is classed as functional.
Series [21] deals with HepG2. As to the kind of experiment: Cytotoxicity against human HepG2 cells. The series is classed as functional.
A short description of series [22]: Inhibition of bacterial DdlA. Also on record: species or system Bacteria.
Series [23] relates to Mycobacterium tuberculosis. The series can be described thus: microbe, parasite or virus in culture. The following applies: H37Rv.
Description: Antibacterial activity against Mycobacterium tuberculosis H37Rv assessed as inhibition of bacterial growth
For series [24], the system named is Mycobacterium tuberculosis. The series is classed as functional. The following applies: H37Rv, 336 h, time 14 day. The source holds these as a separate data set.
Series [25] has as its system Mycobacterium tuberculosis. The series is classed as functional. The following applies: H37Rv, 336 h, time 14 day. The source holds these as a separate data set.
In series [26] the test system is Mycobacterium tuberculosis. As to the kind of experiment: Antibacterial activity against Mycobacterium tuberculosis in acute Mtb infection mouse model assessed as reduction in log10 CFU at 200 mg/kg for 3 weeks in presence of Rifampicin. The series is classed as functional.
Series [27] relates to Mycobacterium tuberculosis. As to the kind of experiment: Antibacterial activity against Mycobacterium tuberculosis in acute Mtb infection mouse model assessed as reduction in log10 CFU at 200 mg/kg for 3 weeks. The series is classed as functional.
Series [28] deals with Mycobacterium tuberculosis. As to the kind of experiment: Antibacterial activity against Mycobacterium tuberculosis in acute Mtb infection 129sv dehydropeptidase-1 KO mouse model assessed as reduction in log10 CFU administered twice daily for 6 days in presence of clavulanate. The series is classed as functional. The note with it: time 6 day.
Series [29] has as its system Mycobacterium tuberculosis. The series is classed as functional. The following applies: H37Rv, 336 h, time 14 day. This is another data set of the same source.
The subject of series [30] is Mycobacterium tuberculosis. As to the kind of experiment: Antibacterial activity against Mycobacterium tuberculosis in acute Mtb infection 129sv dehydropeptidase-1 KO mouse model assessed as reduction in log10 CFU administered orally twice daily for 6 days. The following applies: route po; time 6 day. The series is classed as functional.
The test system of series [31] is Mycobacterium tuberculosis. The series is classed as functional, THP-1. The note with it: H37Rv.
The subject of series [32] is Mycobacterium tuberculosis. The series can be described thus: Antibacterial activity against Mycobacterium tuberculosis in acute Mtb infection 129sv dehydropeptidase-1 KO mouse model assessed as reduction in log10 CFU administered subcutaneously twice daily for 6 days. The following applies: route sc; time 6 day. The series is classed as functional.
Series [33] deals with Mycobacterium tuberculosis. The series can be described thus: Antibacterial activity against Mycobacterium tuberculosis in acute Mtb infection BALB/c mouse model assessed as reduction in log10 CFU treated for 6 days. The series is classed as functional. The following applies: time 6 day.
The subject of series [34] is Mycobacterium tuberculosis. The series is classed as functional, THP-1. The following applies: H37Rv. The source holds these as a separate data set.

`CCS(=O)(=O)N1N=Cc2ccc(Oc3ccc(C(F)(F)F)cc3/C=N/O)cc2B1O`: the Activity in series [1] is 1.7 log10CFU; in series [3] it was 1.5 log10CFU; in series [5], 3.7 log10CFU. In series [2], this compound returned a bioavailability of 53%. The compound also showed a half-life in [4] of 210 min. Moreover, in series [6], the MIC90 was determined as 0.09 µM (≈ 0.0397 µg/mL). For the same compound, the 50% cytotoxic concentration (CC50) in the series on HepG2 [7] was over 100 µM.
Regarding `O=C(NCCC(F)(F)F)c1ccc(-c2noc(C3CC3)n2)cc1`, the half-life in series [8] worked out at 19 min. The compound also yielded a solubility at 24 h in series [9] of 30 µM (≈ 9.76 µg/mL). For the same compound, the pEC50 in [10] was 7.14. The same compound displayed an Activity in series [11] of over 2 log10CFU.
Consider `CSC1=C(C(=O)[O-])N2C(=O)[C@H]([C@@H](C)O)[C@H]2[C@H]1C.[Na+]`, for which the MIC90 in [12] is 0.9 µM. For the same compound, in [13], the Activity is listed as under 2 log10CFU.
In the case of `CCCCS(=O)(=O)Nc1ccc2[nH]ncc2c1`, in [14], the MIC came out at 1.2 µM (≈ 0.304 µg/mL). The compound further showed an Activity in series [15] of 2 log10CFU.
In turn, `O=C(CCC(F)(F)F)N1CCC2(CC1)CC(c1ccccc1)=NO2` displayed a half-life in [16] of 19 min. For the same compound, in series [17], the Activity came out at 1 log10CFU. In addition, the pEC50 in series [18] is 7.70. Moreover, the MIC in series [19] came out at 0.3 µM (≈ 0.102 µg/mL).
For the compound `OC1(c2ccc(OC(F)F)cc2)C[N+](c2ccccc2)=C2CCCCN21.[Br-]` (stereo not drawn), the Activity in series [20] is on record as 1.2 log10CFU. For the same compound, half-maximal cytotoxicity with HepG2 [21] (CC50) was put at 263 µM. In addition, the negative-log IC50 (pIC50) in series [22] is 5.21. The compound also showed an MIC in [23] of 1.1 µM.
Take `C[C@@H](O)[C@H]1C(=O)N2C(C(=O)[O-])=C(SC3Cn4cnc[n+]4C3)[C@H](C)[C@H]12` (stereo partly drawn) [BIAPENEM]: the MIC90 amounted to 1.7 µM (≈ 0.596 µg/mL) in [24] and 7.1 µM (≈ 2.49 µg/mL) in [25]. In series [16], this compound gave a half-life of 17.4 min. The Activity is listed as 8.6 log10CFU in [26] and 5.3 log10CFU in series [27].
For `C[C@@H](O)[C@H]1C(=O)N2C(C(=O)O)=C(S[C@@H]3CN[C@H](C(=O)N(C)C)C3)[C@H](C)[C@H]12` [MEROPENEM], the half-life in series [16] is 27.6 min. Also, the Activity in [28] is reported as 1.7 log10CFU; in series [13], under 2 log10CFU. Moreover, in series [29], the MIC90 was 10 µM (≈ 3.83 µg/mL).
In the case of `CO[C@H]1CCC[C@H]2C1=C(C(=O)OC(C)OC(=O)OC1CCCCC1)N1C(=O)[C@H]([C@@H](C)O)[C@@H]21` (stereo partly drawn) [SANFETRINEM CILEXETIL], the Activity in series [30] came to 1.4 log10CFU.
With `CO[C@H]1CCC[C@H]2C1=C(C(=O)[O-])N1C(=O)[C@H]([C@@H](C)O)[C@@H]21.[Na+]` [SANFETRINEM SODIUM], the MIC90 in [31] was 5.6 µM. Further, the MIC in [23] and in [34] was 5 µM each time. The Activity in series [32] and in series [33] was 1.7 log10CFU throughout.

For the origin of these results see ChEMBL document CHEMBL5137025, “Tuberculosis Drug Discovery: Challenges and New Horizons” (J Med Chem, 2022).
